Assay results as given in patent publication US20240158446A1, “CYCLIC COMPOUND HAVING SELECTIVE INHIBITORY ACTION ON KRAS OVER HRAS AND NRAS” (CHUGAI SEIYAKU KABUSHIKI KAISHA, priority 2021, published 2024).

Columns and labels:
[1] = molecular target: GDP-bound NRAS wild-type protein (Homo sapiens, UniProt P01111); experiment: Binding to NRAS by surface plasmon resonance (SPR), Single Cycle Kinetics; details: SPR, GDP-bound NRAS wild-type protein vs GDP-bound KRAS wild-type protein
[2] = molecular target: GDP-bound HRAS wild-type protein (Homo sapiens, UniProt P01112); experiment: Binding to HRAS by surface plasmon resonance (SPR), Single Cycle Kinetics; details: SPR, GDP-bound HRAS wild-type protein vs GDP-bound KRAS wild-type protein
GDP-bound HRAS wild-type protein, sequence (P01112 whole entry): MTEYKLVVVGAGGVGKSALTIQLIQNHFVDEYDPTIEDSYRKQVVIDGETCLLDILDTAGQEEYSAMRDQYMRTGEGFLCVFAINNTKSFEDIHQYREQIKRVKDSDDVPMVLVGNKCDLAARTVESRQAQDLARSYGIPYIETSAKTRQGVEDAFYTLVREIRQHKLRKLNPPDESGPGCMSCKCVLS

GDP-bound NRAS wild-type protein, sequence (P01111 whole entry): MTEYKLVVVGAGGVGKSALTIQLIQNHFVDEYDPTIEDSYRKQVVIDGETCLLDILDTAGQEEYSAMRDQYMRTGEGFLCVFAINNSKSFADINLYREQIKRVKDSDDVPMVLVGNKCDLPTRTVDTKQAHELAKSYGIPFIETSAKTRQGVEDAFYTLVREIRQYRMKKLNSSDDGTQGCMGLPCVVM

Structure (SMILES) | NRAS/KRAS (ratio of KD value with respect to NRAS to KD value with respect to KRAS) [1] | HRAS/KRAS (ratio of KD value with respect to HRAS to KD value with respect to KRAS) [2]
CCO[C@@H]1C[C@H]2C(=O)NC3(CCC3)C(=O)N(C)[C@@H](C3CCCC3)C(=O)N(CCc3ccccc3)[C@H](C(=O)N3CCOCC3)CC(=O)N(C)[C@@H](CC(C)C)C(=O)N[C@@H]([C@@H](C)CC)C(=O)N(C)CC(=O)N(C)[C@H]3CCCCCN(C3=O)[C@@H](Cc3ccc(C(F)(F)F)cc3)C(=O)N(C)CC(=O)N[C@@H](CCc3cc(F)c(C(F)(F)F)c(F)c3)C(=O)N2C1 [PP0642] | B (a compound having 3 or more and less than 10 is denoted as B) | B (a compound having 3 or more and less than 10 is denoted as B)
CCCN1C(=O)[C@H](C2CCCC2)N(C)C(=O)C2(CCC2)NC(=O)[C@@H]2C[C@@H](OCC)CN2C(=O)[C@H](CCc2cc(F)c(C(F)(F)F)c(F)c2)NC(=O)CN(C)C(=O)[C@H](Cc2ccc(C(F)(F)F)cc2)N2CCCC[C@@H](C2=O)N(C)C(=O)CN(C)C(=O)[C@H]([C@@H](C)CC)NC(=O)[C@H](CC)N(C)C(=O)C[C@H]1C(=O)N(C)C [PP0644] | C (A compound having a KD ratio of 0.1 or more and less than 3 is denoted as C) | B (a compound having 3 or more and less than 10 is denoted as B)
CC[C@H](C)[C@@H]1NC(=O)[C@H](CC)N(C)C(=O)C[C@@H](C(=O)N(C)C)N(C)C(=O)[C@H](C2CCCC2)N(C)C(=O)C2(CCC2)NC(=O)[C@@H]2CCN2C(=O)[C@H](CCc2cc(F)c(C(F)(F)F)c(F)c2)NC(=O)CN(C)C(=O)[C@H](Cc2ccc(C(F)(F)F)cc2)N2CCCCC[C@@H](C2=O)N(C)C(=O)CN(C)C1=O [PP0654] | B (a compound having 3 or more and less than 10 is denoted as B) | B (a compound having 3 or more and less than 10 is denoted as B)
CCO[C@@H]1C[C@H]2C(=O)NC3(CCC3)C(=O)N(C)[C@@H](C3CCCC3)C(=O)N(C)[C@H](C(=O)N(C)C)CC(=O)N(C)[C@@H](CC3CCCCC3)C(=O)N[C@@H]([C@@H](C)CC)C(=O)N(C)CC(=O)N(C)[C@H]3CCCCCN(C3=O)[C@@H](Cc3ccc(C(F)(F)F)cc3)C(=O)N(C)CC(=O)N[C@@H](CCc3cc(F)c(C(F)(F)F)c(F)c3)C(=O)N2C1 [PP0671] | B (a compound having 3 or more and less than 10 is denoted as B) | B (a compound having 3 or more and less than 10 is denoted as B)
CCO[C@@H]1C[C@H]2C(=O)NC3(CCC3)C(=O)N(C)[C@@H](C3CCCC3)C(=O)N(C)[C@H](C(=O)N(C)C)CC(=O)N(C)[C@@H](CCOC)C(=O)N[C@@H]([C@@H](C)CC)C(=O)N(C)CC(=O)N(C)[C@H]3CCCCCN(C3=O)[C@@H](Cc3ccc(C(F)(F)F)cc3)C(=O)N(C)CC(=O)N[C@@H](CCc3cc(F)c(C(F)(F)F)c(F)c3)C(=O)N2C1 [PP0675] | B (a compound having 3 or more and less than 10 is denoted as B) | B (a compound having 3 or more and less than 10 is denoted as B)
CCO[C@@H]1C[C@H]2C(=O)NC3(CCC3)C(=O)N(C)[C@@H](C3CCCC3)C(=O)N(C)[C@H](C(=O)N3CCOCC3)CC(=O)N(C)[C@@H](CC3CC3)C(=O)N[C@@H]([C@@H](C)CC)C(=O)N(C)CC(=O)N(C)[C@H]3CCCCCN(C3=O)[C@@H](Cc3ccc(C(F)(F)F)cc3)C(=O)N(C)CC(=O)N[C@@H](CCc3cc(F)c(C(F)(F)F)c(F)c3)C(=O)N2C1 [PP0682] | B (a compound having 3 or more and less than 10 is denoted as B) | B (a compound having 3 or more and less than 10 is denoted as B)
CCO[C@@H]1C[C@H]2C(=O)NC3(CCC3)C(=O)N(C)[C@@H](C3CCCC3)C(=O)N(C)[C@H](C(=O)N3CCOCC3)CC(=O)N(C)[C@@H](CC3CCC3)C(=O)N[C@@H]([C@@H](C)CC)C(=O)N(C)CC(=O)N(C)[C@H]3CCCCCN(C3=O)[C@@H](Cc3ccc(C(F)(F)F)cc3)C(=O)N(C)CC(=O)N[C@@H](CCc3cc(F)c(C(F)(F)F)c(F)c3)C(=O)N2C1 [PP0683] | B (a compound having 3 or more and less than 10 is denoted as B) | B (a compound having 3 or more and less than 10 is denoted as B)
CCO[C@@H]1C[C@H]2C(=O)NC3(CCC3)C(=O)N(C)[C@@H](C3CCCC3)C(=O)N(C)[C@H](C(=O)N3CCOCC3)CC(=O)N(C)[C@@H](CC(C)(C)C)C(=O)N[C@@H]([C@@H](C)CC)C(=O)N(C)CC(=O)N(C)[C@H]3CCCCCN(C3=O)[C@@H](Cc3ccc(C(F)(F)F)cc3)C(=O)N(C)CC(=O)N[C@@H](CCc3cc(F)c(C(F)(F)F)c(F)c3)C(=O)N2C1 [PP0684] | B (a compound having 3 or more and less than 10 is denoted as B) | B (a compound having 3 or more and less than 10 is denoted as B)
CCO[C@@H]1C[C@H]2C(=O)NC3(CCC3)C(=O)N(C)[C@@H](C3CCCC3)C(=O)N(C)[C@H](C(=O)N3CCOCC3)CC(=O)N(C)[C@@H](CC3CCCC3)C(=O)N[C@@H]([C@@H](C)CC)C(=O)N(C)CC(=O)N(C)[C@H]3CCCCCN(C3=O)[C@@H](Cc3ccc(C(F)(F)F)cc3)C(=O)N(C)CC(=O)N[C@@H](CCc3cc(F)c(C(F)(F)F)c(F)c3)C(=O)N2C1 [PP0685] | B (a compound having 3 or more and less than 10 is denoted as B) | B (a compound having 3 or more and less than 10 is denoted as B)
CCO[C@@H]1C[C@H]2C(=O)NC3(CCC3)C(=O)N(C)[C@@H](C3CCCC3)C(=O)N(C)[C@H](C(=O)N3CCOCC3)CC(=O)N(C)[C@@H](CC3CCCCC3)C(=O)N[C@@H]([C@@H](C)CC)C(=O)N(C)CC(=O)N(C)[C@H]3CCCCCN(C3=O)[C@@H](Cc3ccc(C(F)(F)F)cc3)C(=O)N(C)CC(=O)N[C@@H](CCc3cc(F)c(C(F)(F)F)c(F)c3)C(=O)N2C1 [PP0686] | B (a compound having 3 or more and less than 10 is denoted as B) | B (a compound having 3 or more and less than 10 is denoted as B)
CCO[C@@H]1C[C@H]2C(=O)NC3(CCC3)C(=O)N(C)[C@@H](C3CCCC3)C(=O)N(C)[C@H](C(=O)N(C)C)CC(=O)N(C)[C@@H](CC3CCCC3)C(=O)N[C@@H]([C@@H](C)CC)C(=O)N(C)CC(=O)N(C)[C@H]3CCCCN(C3=O)[C@@H](Cc3ccc(C(F)(F)F)cc3)C(=O)N(C)CC(=O)N[C@@H](CCc3cc(F)c(C(F)(F)F)c(F)c3)C(=O)N2C1 [PP0700] | C (A compound having a KD ratio of 0.1 or more and less than 3 is denoted as C) | B (a compound having 3 or more and less than 10 is denoted as B)
CCO[C@@H]1C[C@H]2C(=O)NC3(CCC3)C(=O)N(C)[C@@H](C3CCCC3)C(=O)N(C)[C@H](C(=O)N(C)C)CC(=O)N(C)[C@@H](C)C(=O)N[C@@H]([C@H](C)CC)C(=O)N(C)CC(=O)N(C)[C@H]3CCCCCN(C3=O)[C@@H](Cc3ccc(C(F)(F)F)cc3)C(=O)N(C)CC(=O)N[C@@H](CCc3cc(F)c(C(F)(F)F)c(F)c3)C(=O)N2C1 [PP0729] | B (a compound having 3 or more and less than 10 is denoted as B) | B (a compound having 3 or more and less than 10 is denoted as B)
